In patent publication US12629348B2, “Method and composition for treating osteoarthritis” (Vireo Systems, Inc., priority 2013, dated 2026):

How the values were obtained:
canines having OA = experiment: Double-blind randomized trial in OA canines: daily activity by pedometer; type: in vivo, canine; conditions: 36 mg/kg/day oral
Description: The double-blind study was performed on a total of 30 adult canines of various breeds in five different private practice clinics. Owner consent was obtained prior to participation in the study. Each clinic was responsible for enrolling 6 canines into the study. Inclusion criteria for the study consisted of clinical assessment and radiograph confirmation of OA in at least one joint and a score of 22 or greater on the Helsinki chronic pain index (“HCPI”). Use of NSAIDs or other dietary supplements for OA were allowed, provided the current treatment regimens had not been altered for a period of at least three months. […] Canines participating in the study were also fitted with pedometers (Draco Tech International, Taiwan) to quantitatively track changes in daily activity during the course of the study. […] The pedometers were fitted onto the collars at the clinic, and owners were instructed on care and maintenance of the pedometers and provided a log book to record the daily pedometer readings. Pedometer readings were recorded on a daily basis starting one week prior to the study and continuing throughout the two-week trial period. The daily pedometer readings recorded throughout an entire week (7-day period) were used to determine the average daily activity during the baseline period (one week prior to the start of the study) and the first and second weeks of the trial. […]

[1] = tested on: cultured canine chondrocytes; experiment: PGE2 release in cultured canine chondrocytes challenged with IL1b; type: cell-based; conditions: 100 μM, IL1b challenge, FIG. 3
Description: The study involved the use of cultured canine chondrocytes (i.e., cells within the joint that are activated during OA). The canine chondrocytes were subjected to an inflammatory challenge in the form of cytokine Interleukin 1 beta (“IL1b”). The canine chondrocytes were then treated with various anti-inflammatory compounds including Alpha-GEE; glucosamine; a TNFα receptor antagonist; and a NSAID (Rimadyl). Alpha-GEE was administered in concentrations ranging from 10 μM to 1000 μM. The resulting effects of the various treatments on both PGE2 release and TNFα release were examined.
Alpha-GEE, glucosamine, and Rimadyl were used in a concentration of 100 μM, while the TNFα inhibitor was used in a concentration of 1 μM. Based on all of the treatments examined (i.e., Alpha-GEE; glucosamine; NSAID (Rimadyl); and TNFα receptor antagonist), Alpha-GEE produced the most dramatic decrease in PGE2 at the early 4-hour time point. […] The reduction in PGE2 release at the early 4 hour time point was greater than that observed with the NSAID, Rimadyl, glucosamine, or TNFα receptor blocker. The maximal effect of Alpha-GEE on PGE2 release from chondrocytes was observed within 8 hours, where a 75% reduction in PGE2 release was observed.

Substance: ethyl (α-guanido-methyl) ethanoate [Alpha-GEE]
- increase in daily pedometer readings (mobility) (canines having OA; first week versus baseline week, p<0.05 vs placebo): approximately 20%
- increase in daily pedometer readings (mobility, physical activity) (canines having OA; second week versus baseline week, p<0.01 vs placebo): approximately 30%
- reduction in PGE2 release from canine chondrocytes ([1]; 4 hours): approximately 60%
- reduction in PGE2 release from canine chondrocytes (maximal effect) ([1]; within 8 hours): 75%
